In patent US20240325495A1, “FUSION PROTEINS FOR THE TREATMENT OF DISEASE” (Bristol-Myers Squibb Company, priority 2020, published 2024):

System: NZB×NZW F1 mice
Experiment: mIL-2/CD25 and prednisolone combination in NZB×NZW mice
Type: in vivo, mouse
Protocol: The effect of mIL-2/CD25 on Tregs was also assessed in the spleen at completion of this study (after 14 weeks of treatment).
At completion of study, one kidney from each mouse was collected in RNA Later and then homogenized in mRNA Catcher Lysis Buffer with a Tissue Lyser. mRNA was purified using mRNA Catcher PLUS according to the manufacturer's protocol (Invitrogen). cDNA was synthesized using SuperScript II with random hexamer primers. PCR was performed with SYBR Green Master Mix (Invitrogen). Relative quantification analysis was determined using the 2-ΔΔCT method using cyclophilin (PPIA) as the housekeeping gene. Expression of inflammatory cytokine and leukocyte surface receptors were analyzed.

With C[C@]12C=CC(=O)C=C1CC[C@@H]1[C@@H]2[C@@H](O)C[C@@]2(C)[C@H]1CC[C@]2(O)C(=O)CO [prednisolone, Prednisolone] the “percentage of Tregs and CD25 MFI on Tregs in the spleen” value (after 14 weeks of treatment) was “did not alter” and the “proteinuria levels and anti-dsDNA titers” value (prednisolone 1 mg/kg p.o. 3×/week, mIL-2/CD25 0.1 mg/kg s.c. 2×/week, or both, 14 weeks) was “partial protection”.
